# Data: US9586951B2 (FUJIFILM Corporation, priority 2013, dated 2017)
# Columns and labels:
# [1] = test system: human non-small cell lung cancer cell line NCI-H460; test: Cell proliferation inhibition test by sensitivity-enhancing to ionizing radiation (Cell Titer Glo); format: cell-based; conditions: concentration in which SER became 2, NCI-H460 cells, ionizing radiation 2 Gy, cultured 120 hour
# Method in brief: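 Radiosensitisation measured as SER, a ratio of Cell Titer Glo luminescence in irradiated vs unirradiated plates relative to DMSO; SER2, the concentration yielding SER 2, came from sigmoidal regression. Compound (0.1% DMSO) was given 24 h post-seeding, 2 Gy applied 30 min later, then 120 hour culture at 37° C.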
# ATM = target: T1, ATM (Homo sapiens, UniProt Q13315); test: ATM inhibition test (phosphorylation of Chk2 generated by ionizing radiation, AlphaScreen SureFire); format: cell-based; conditions: phosphorylated Chk2 in NCI-H460 cells, ionizing radiation 8Gy, 1 hour after test compound treatment; read-out: ATM inhibitory activity
# T1 construct: detecting phosphorylation of Chk2 in a human non-small cell lung cancer cell line NCI-H460 (ATCC company); host or cells: NCI-H460 human non-small cell lung cancer cells
# T1 sequence (Q13315 whole entry): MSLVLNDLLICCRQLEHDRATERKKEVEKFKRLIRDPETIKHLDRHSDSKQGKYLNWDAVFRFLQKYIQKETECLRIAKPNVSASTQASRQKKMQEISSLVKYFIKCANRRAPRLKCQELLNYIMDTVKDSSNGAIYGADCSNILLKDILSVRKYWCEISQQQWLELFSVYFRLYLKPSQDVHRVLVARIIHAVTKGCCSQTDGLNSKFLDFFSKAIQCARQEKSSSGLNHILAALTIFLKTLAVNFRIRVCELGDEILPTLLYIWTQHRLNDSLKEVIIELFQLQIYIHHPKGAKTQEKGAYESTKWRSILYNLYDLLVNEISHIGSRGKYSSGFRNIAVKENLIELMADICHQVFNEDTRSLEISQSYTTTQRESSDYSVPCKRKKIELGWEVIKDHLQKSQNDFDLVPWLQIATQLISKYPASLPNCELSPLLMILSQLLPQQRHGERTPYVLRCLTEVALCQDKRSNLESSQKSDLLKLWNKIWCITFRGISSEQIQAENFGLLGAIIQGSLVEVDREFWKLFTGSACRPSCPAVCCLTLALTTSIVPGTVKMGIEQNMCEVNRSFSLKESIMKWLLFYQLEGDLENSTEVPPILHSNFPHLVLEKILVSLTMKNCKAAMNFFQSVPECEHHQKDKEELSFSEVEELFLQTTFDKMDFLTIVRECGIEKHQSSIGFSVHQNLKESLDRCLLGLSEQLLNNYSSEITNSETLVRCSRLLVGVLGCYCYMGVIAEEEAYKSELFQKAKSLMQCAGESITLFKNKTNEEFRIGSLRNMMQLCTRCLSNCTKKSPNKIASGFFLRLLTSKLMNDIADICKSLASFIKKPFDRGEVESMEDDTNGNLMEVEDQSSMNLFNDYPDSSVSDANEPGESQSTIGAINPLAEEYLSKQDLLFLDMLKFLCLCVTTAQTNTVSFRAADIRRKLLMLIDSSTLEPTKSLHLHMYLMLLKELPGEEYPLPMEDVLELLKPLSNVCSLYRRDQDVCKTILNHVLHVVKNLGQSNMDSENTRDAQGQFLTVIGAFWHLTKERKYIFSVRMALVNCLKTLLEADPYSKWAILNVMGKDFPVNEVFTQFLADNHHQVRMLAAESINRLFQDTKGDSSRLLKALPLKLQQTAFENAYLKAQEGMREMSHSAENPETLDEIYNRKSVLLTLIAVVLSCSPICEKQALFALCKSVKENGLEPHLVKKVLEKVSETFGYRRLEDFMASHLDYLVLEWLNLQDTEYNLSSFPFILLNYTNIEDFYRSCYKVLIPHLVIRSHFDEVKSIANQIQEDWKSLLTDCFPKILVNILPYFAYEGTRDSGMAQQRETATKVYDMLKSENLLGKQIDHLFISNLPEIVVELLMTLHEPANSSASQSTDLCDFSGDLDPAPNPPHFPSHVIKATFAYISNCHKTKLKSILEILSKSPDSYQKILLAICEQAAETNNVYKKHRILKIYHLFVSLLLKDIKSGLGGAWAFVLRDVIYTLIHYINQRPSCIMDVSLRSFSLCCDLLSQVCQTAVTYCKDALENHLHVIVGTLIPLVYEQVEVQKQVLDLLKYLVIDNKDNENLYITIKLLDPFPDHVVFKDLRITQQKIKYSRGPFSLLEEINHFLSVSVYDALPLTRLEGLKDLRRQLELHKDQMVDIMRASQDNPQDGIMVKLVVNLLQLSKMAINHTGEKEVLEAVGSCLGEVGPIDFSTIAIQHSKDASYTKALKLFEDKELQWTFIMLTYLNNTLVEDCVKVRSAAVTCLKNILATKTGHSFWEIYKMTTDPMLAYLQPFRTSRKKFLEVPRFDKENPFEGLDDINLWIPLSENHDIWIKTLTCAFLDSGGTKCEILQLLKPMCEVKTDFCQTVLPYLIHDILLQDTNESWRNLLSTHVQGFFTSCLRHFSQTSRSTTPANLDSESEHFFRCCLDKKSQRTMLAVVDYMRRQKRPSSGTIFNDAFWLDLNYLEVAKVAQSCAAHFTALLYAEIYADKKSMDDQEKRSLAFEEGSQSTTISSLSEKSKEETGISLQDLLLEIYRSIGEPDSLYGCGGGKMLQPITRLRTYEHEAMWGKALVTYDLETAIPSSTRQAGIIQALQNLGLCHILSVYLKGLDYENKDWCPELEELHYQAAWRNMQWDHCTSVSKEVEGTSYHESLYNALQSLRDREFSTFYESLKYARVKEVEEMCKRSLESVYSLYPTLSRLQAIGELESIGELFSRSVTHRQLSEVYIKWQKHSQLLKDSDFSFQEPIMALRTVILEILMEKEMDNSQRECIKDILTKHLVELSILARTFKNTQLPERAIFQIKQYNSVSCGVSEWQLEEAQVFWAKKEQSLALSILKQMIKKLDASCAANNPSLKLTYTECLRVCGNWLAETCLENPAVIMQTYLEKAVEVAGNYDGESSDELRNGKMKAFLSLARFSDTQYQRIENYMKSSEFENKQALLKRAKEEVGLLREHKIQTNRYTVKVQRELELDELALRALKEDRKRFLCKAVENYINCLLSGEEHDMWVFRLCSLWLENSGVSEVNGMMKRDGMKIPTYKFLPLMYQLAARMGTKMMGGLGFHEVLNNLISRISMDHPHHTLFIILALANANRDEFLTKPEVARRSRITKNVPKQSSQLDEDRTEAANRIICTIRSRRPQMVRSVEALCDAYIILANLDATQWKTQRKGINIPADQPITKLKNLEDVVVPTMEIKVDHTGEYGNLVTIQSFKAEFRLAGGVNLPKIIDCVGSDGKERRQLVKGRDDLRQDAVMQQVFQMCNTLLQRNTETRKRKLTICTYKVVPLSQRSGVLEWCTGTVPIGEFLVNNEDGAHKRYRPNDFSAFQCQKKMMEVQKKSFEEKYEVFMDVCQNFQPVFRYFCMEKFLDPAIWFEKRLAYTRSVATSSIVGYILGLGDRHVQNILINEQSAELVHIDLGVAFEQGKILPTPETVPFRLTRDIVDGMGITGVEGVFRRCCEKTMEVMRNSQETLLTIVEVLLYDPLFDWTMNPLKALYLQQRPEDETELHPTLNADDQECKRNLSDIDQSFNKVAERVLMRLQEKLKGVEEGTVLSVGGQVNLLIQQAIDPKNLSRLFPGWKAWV
# Method in brief: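 Phosphorylated Chk2 read by AlphaScreen SureFire in human non-small cell lung cancer NCI-H460 cells, 1 hour after 8Gy ionizing radiation at 37° C. Compound added 1 hour before irradiation. Percent inhibition normalised between irradiated and non-irradiated drug-untreated signals.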
Structure (SMILES),"SER2 (concentration at which the radiation sensitivity-enhancement ratio reaches 2) ([1]; Homo sapiens, NCI-H460, 120 h) [nM]",IC50 (ATM) [nM],SER2 (concentration at which the radiation sensitivity-enhancement ratio reaches 2) [1] [nM]
"CC(Nc1ccc2c(c1)Cc1cccc(-c3cc(N4CCOCC4)cc(=O)[nH]3)c1O2)c1nccc(C(F)F)n1 (stereo not drawn) [Example 2-14-62, 6-(7-((l-(4-(Difluoromethyl)pyrimidin-2-yl)ethyl)amino)-9H-xanthen-4-yl)-4-morpholino pyridin-2(1H)-one]",100 to 500,< 100,
"CN(C)c1nccc(CNc2ccc3c(c2)Cc2cccc(-c4cc(N5CCOCC5)cc(=O)[nH]4)c2O3)n1 [Example 2-13-5, 6-(7-(((2-(Dimethylamino)pyrimidin-4-yl)methyl)amino)-9H-xanthen-4-yl)-4-morpholino pyridin-2(1H)-one]",500 to 2000,< 100,
"Cc1cc(CNc2ccc3c(c2)Cc2cccc(-c4cc(N5CCOCC5)cc(=O)[nH]4)c2O3)ccn1 [Example 2-2-20, 6-(7-(((2-Methylpyridin-4-yl)methyl)amino)-9H-xanthen-4-yl)-4-morpholino pyridin-2(1H)-one]",500 to 2000,< 100,
"Cc1ccnc(C(C)Nc2ccc3c(c2)Sc2cccc(-c4cc(N5CCOCC5)cc(=O)[nH]4)c2S3)c1 (single isomer, unassigned) [Example 1-12-135-1, 6-(7-((1-(4-methylpyridin-2-yl)ethyl)amino)thianthren-1-yl)-4-morpholinopyridin-2(1H)-one]",< 100,< 100,
"COCCCC(Nc1ccc2c(c1)Sc1cccc(-c3cc(N4CCOCC4)cc(=O)[nH]3)c1S2)c1ccc(C)cn1 (stereo not shown) [Example 1-12-130, 6-(7-((4-Methoxy-1-(5-methylpyridin-2-yl)butyl)amino)thianthren-1-yl)-4-morpholino pyridin-2(1H)-one]",100 to 500,< 100,
"CC(Nc1ccc2c(c1)Cc1cccc(-c3cc(N4CCOCC4)cc(=O)[nH]3)c1O2)c1cc(Cl)ccn1 (stereo not shown) [Example 2-14-23, 6-(7-((1-(4-Chloropyridin-2-yl)ethyl)amino)-9H-xanthen-4-yl)-4-morpholino pyridin-2(1H)-one]",100 to 500,< 100,
"COc1ncc(CNc2ccc3c(c2)Cc2cccc(-c4cc(N5CCOCC5)cc(=O)[nH]4)c2O3)cn1 [Example 2-2-14, 6-(7-(((2-Methoxypyrimidin-5-yl)methyl)amino)-9H-xanthen-4-yl)-4-morpholino pyridin-2(1H)-one]",100 to 500,< 100,
"CC(Nc1ccc2c(c1)Cc1cccc(-c3cc(N4CCOCC4)cc(=O)[nH]3)c1O2)c1cc(Cl)ccn1 (single isomer, unassigned) [Example 2-14-89-2, 6-(7-((1-(4-chloropyridin-2-yl)ethyl)amino)-9H-xanthen-4-yl)-4-morpholinopyridin-2(1H)-one]",< 100,< 100,
"COc1cncc(CN2CCC(Nc3ccc4c(c3)Cc3cccc(-c5cc(N6CCOCC6)cc(=O)[nH]5)c3O4)CC2)n1 [Example 2-28-23, 6-(7-((1-((6-Methoxypyrazin-2-yl)methyl)piperidin-4-yl)amino)-9H-xanthen-4-yl)-4-morpholino pyridin-2(1H)-one]",500 to 2000,< 100,
"Cc1cccc(C(C)Nc2ccc3c(c2)Sc2cccc(-c4cc(N5CCOCC5)cc(=O)[nH]4)c2S3)n1 (single isomer, unassigned) [Example 1-12-136-2, 6-(7-((1-(6-methylpyridin-2-yl)ethyl)amino)thianthren-1-yl)-4-morpholinopyridin-2(1H)-one]",,< 100,100 to 500
"O=c1cc(N2CCOCC2)cc(-c2cccc3c2Oc2ccc(NCc4cncc(N5CCCC5)c4)cc2S3)[nH]1 [Example 4-4-7, 4-Mmorpholino-6-(8-(((5-(pyrrolidin-1-yl)pyridin-3-yl)methyl)amino)phenoxathiin-4-yl)pyridin-2(1H)-one]",100 to 500,< 100,
"CC(CN1C[C@@H](C)O[C@@H](C)C1)Nc1ccc2c(c1)Sc1cccc(-c3cc(N4CCOCC4)cc(=O)[nH]3)c1S2 (stereo partly drawn) [Example 1-13-12, 6-(7-((1-((2S,6R)-2,6- Dimethylmorpholino)propan-2-yl)amino)thianthren-1-yl)-4-morpholino pyridin-2(1H)-one]",100 to 500,< 100,
"CNc1ncc(CNc2ccc3c(c2)Sc2cccc(-c4cc(N5CCOCC5)cc(=O)[nH]4)c2S3)cn1 [Example 1-12-46, 6-(7-(((2-(Methylamino)pyrimidin-5-yl)methyl)amino)thianthren-1-yl)-4-morpholino pyridin-2(1H)-one]",100 to 500,< 100,
"CCCN1CCC(Nc2ccc3c(c2)Cc2cccc(-c4cc(N5CCOCC5)cc(=O)[nH]4)c2O3)CC1 [Example 2-28-32, 4-Morpholino-6-(7-((1-propylpiperidin-4-yl)amino)-9H-xanthen-4-yl) pyridin-2(1H)-one]",500 to 2000,< 100,
"CC(CN1CCOCC1)Nc1ccc2c(c1)Sc1cccc(-c3cc(N4CCOCC4)cc(=O)[nH]3)c1S2 (racemic) [Example 1-13-2-1, 4-Morpholino-6-(7-((1-morpholinopropan-2-yl)amino)thianthren-1-yl)pyridin-2(1H)-one]",100 to 500,< 100,
"O=c1cc(N2CCOCC2)cc(-c2cccc3c2Oc2ccc(NCc4ccc(Cl)nc4)cc2S3)[nH]1 [Example 4-8-25, 6-(8-(((6-Chloropyridin-3-yl)methyl)amino)phenoxathiin-4-yl)-4-morpholino pyridin-2(1H)-one]",100 to 500,< 100,
"CNc1ccc(CNc2ccc3c(c2)Cc2cccc(-c4cc(N5CCOCC5)cc(=O)[nH]4)c2O3)cn1 [Example 2-2-7, 6-(7-(((6-(Methylamino)pyridin-3-yl)methyl)amino)-9H-xanthen-4-yl)-4-morpholino pyridin-2 (1H)-one]",100 to 500,100 to 500,
"Cc1ccc(CNc2ccc3c(c2)Cc2cccc(-c4cc(N5CCOCC5)cc(=O)[nH]4)c2O3)nc1 [Example 2-2-41, 6-(7-(((5-Methylpyridin-2-yl)methyl)amino)-9H-xanthen-4-yl)-4-morpholino pyridin-2(1H)-one]",100 to 500,100 to 500,
"Cc1cccc(C(Nc2ccc3c(c2)Sc2cccc(-c4cc(N5CCOCC5)cc(=O)[nH]4)c2S3)C2CCCN(C)C2)n1 (single isomer, unassigned) [Example 1-22-5, 6-(7-(((1-Methylpiperidin-3-yl)(6-methylpyridin-2-yl)methyl)amino)thianthren-1-yl)-4-morpholino pyridin-2 (1H)-one]",,< 100,100 to 500
"Cc1cnc(CNc2ccc3c(c2)Sc2cccc(-c4cc(N5CCOCC5)cc(=O)[nH]4)c2S3)cn1 [Example 1-12-62, 6-(7-(((5-Methylpyrazin-2-yl)methyl)amino)thianthren-1-yl)-4-morpholino pyridin-2 (1H)-one]",100 to 500,< 100,
